Source: patent US20150105458A1, “LINE LEAF INULA FLOWER LACTONE A AND METHODS FOR PREPARING AND USING THE SAME FOR TREATING MULTIPLE SCLEROSIS” (SHANXI ZHENDONG PILOT BIOLOGICAL SCIENCE AND TECHNOLOGY …, priority 2012, published 2015)

Key:
EAE mice = assay: EAE model in mice, clinical course (onset and severity); type: in vivo, C57BL/6 mice; conditions: intragastric administration, 50 mg/kg once per day and higher doses, day 0 to day 30; FIG. 1
Protocol: (§1) EAE was induced in C57BL/6 mice (six mice per group) by subcutaneous injection of 0.1 ml of […] (in PBS, 300 μg/per mouse) on day 0, emulsified with Complete Freund's adjuvant (1:1) supplemented with Mycobacterium tuberculosis H37Ra antigen (400 μg/per mouse) or with Complete Freund's adjuvant alone as a control. All mice immunized with MOG received 250 ng pertussis toxin prepared in PBS, on days 0 and 2 by intraperitoneal injection.
(§2) Line leaf inula flower lactone A 45.3 g (from Example 1) was suspended in 0.5% CMC—Na (carboxymethyl cellulose sodium) to make a mixture with final concentration as 10 mg/ml, then diluted to four concentration gradients: (1) 25 mg/kg per day; (2) 50 mg/kg per day; (3) 100 mg/kg per day; (4) 200 mg/kg per day. The drug was given to the mice by intragastric administration from day 0 to day 30.

brain tissue of EAE mice = assay: HE staining of brain tissue of EAE mice; type: in vivo, C57BL/6 mice; conditions: intragastric administration, 50 mg/kg and higher doses; FIG. 2
Protocol: as §1, §2

## C=C1C(=O)O[C@H]2C[C@@H](C)[C@@H]3[C@@H](OC(C)=O)C[C@H](O)[C@@]3(C)[C@@H](OC(C)=O)[C@H]12 [line leaf inula flower lactone A]
EAE mice
  onset of EAE: significantly delay the onset of EAE
  severity of the disease (EAE): reduced the severity of the disease
Brain tissue of EAE mice
  arrangement of the organization (brain tissue, HE staining): basically returned to normal condition
  inflammatory cells in brain and blood vessels (HE staining): reduced number of inflammatory cells in brain and blood vessels
